Legend:
Test in all cases: Test C postemergence, plant response rating
Format in all cases: in vivo
[1] = test system: chickweed (common chickweed, Stellaria media); details: Stellaria media, post-emergence
How it was run: (§1)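 After sowing in loam–sand blend or silt loam, pots were sprayed preemergence; separately grown 1- to 4-leaf plants were sprayed postemergence. Following 13 to 15 d under greenhouse conditions, injury was rated visually on a 0 to 100 scale.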

[2] = test system: blackgrass (Alopecurus myosuroides); details: Alopecurus myosuroides, post-emergence
How it was run: as §1

[3] = test system: galium (catchweed bedstraw, Galium aparine); details: Galium, post-emergence
How it was run: as §1

[4] = test system: nutsedge, yellow (yellow nutsedge, Cyperus esculentus); details: Cyperus, post-emergence
How it was run: as §1

[5] = test system: ragweed (common ragweed, Ambrosia elatior); details: Ambrosia artemisiifolia, post-emergence
How it was run: as §1

[6] = test system: velvetleaf (Abutilon theophrasti); details: Abutilon theophrasti, post-emergence
How it was run: as §1

corn (Zea mays) = details: Zea mays, post-emergence
How it was run: as §1

[7] = test system: waterhemp (common waterhemp, Amaranthus rudis); details: for Plant response rating, Waterhemp: scale 0 to 100; for Waterhemp plant response rating: scale 0 to 100 (0 no effect, 100 complete control)
How it was run: as §1

[8] = test system: wheat (winter wheat, Triticum aestivum); details: Triticum aestivum, post-emergence
How it was run: as §1

soybean (Glycine max) = details: Glycine max, post-emergence
How it was run: as §1

kochia (Kochia scoparia) = details: Bassia scoparia, post-emergence
How it was run: as §1

[9] = test system: foxtail, giant (giant foxtail, Setaria faberii); details: Setaria faberi, post-emergence
How it was run: as §1

[10] = test system: oat, wild (wild oat Avena fatua); details: Avena fatua, post-emergence
How it was run: as §1

[11] = test system: morningglory (Ipomoea coccinea); details: Ipomoea, post-emergence
How it was run: as §1

[12] = test system: lambsquarters (Chenopodium album); details: Chenopodium album, post-emergence
How it was run: as §1

[13] = test system: oilseed rape (Brassica napus); details: Brassica napus, post-emergence
How it was run: as §1

[14] = 62 g ai/ha, scale 0 to 100 (0 no effect, 100 complete control)
[15] = 125 g ai/ha, scale 0 to 100 (0 no effect, 100 complete control)

C=CCCOC(=O)c1c(Br)cccc1Oc1ncc(Cl)cn1 [Compound 21, 3-buten-1-yl 2-bromo-6-[(5-chloro-2-pyrimidinyl)oxy]benzoate]
pest or weed control at 16 g/ha ([1]; 16 g ai/ha, scale 0 to 100): 40%
pest or weed control at 31 g/ha ([1]; 31 g ai/ha, scale 0 to 100): 50%
pest or weed control at 62 g/ha [1, 14]: 50%
pest or weed control at 125 g/ha [1, 15]: 80%
pest or weed control at 16 g/ha ([2]; 16 g ai/ha, scale 0 to 100): 0%
pest or weed control at 31 g/ha ([2]; 31 g ai/ha, scale 0 to 100): 0%
pest or weed control at 62 g/ha [2, 14]: 5%
pest or weed control at 125 g/ha [2, 15]: 5%
pest or weed control at 16 g/ha ([3]; 16 g ai/ha, scale 0 to 100): 55%
pest or weed control at 31 g/ha ([3]; 31 g ai/ha, scale 0 to 100): 80%
pest or weed control at 62 g/ha [3, 14]: 75%
pest or weed control at 125 g/ha [3, 15]: 80%
pest or weed control at 16 g/ha ([4]; 16 g ai/ha, scale 0 to 100): 0%
pest or weed control at 31 g/ha ([4]; 31 g ai/ha, scale 0 to 100): 0%
pest or weed control at 62 g/ha [4, 14]: 5%
pest or weed control at 125 g/ha [4, 15]: 10%
pest or weed control at 16 g/ha ([5]; 16 g ai/ha, scale 0 to 100): 10%
pest or weed control at 31 g/ha ([5]; 31 g ai/ha, scale 0 to 100): 10%
pest or weed control at 62 g/ha [5, 14]: 45%
pest or weed control at 125 g/ha [5, 15]: 55%
pest or weed control at 16 g/ha ([6]; 16 g ai/ha, scale 0 to 100): 40%
pest or weed control at 31 g/ha ([6]; 31 g ai/ha, scale 0 to 100): 60%
pest or weed control at 62 g/ha ([6]; 62 g ai/ha, scale 0 to 100 (0 no effect, 100 complete control), read-out: Velvetleaf plant response rating): 60%
pest or weed control at 125 g/ha [6, 15]: 70%
Corn plant response rating (crop injury, 0 = no effect, 100 = complete kill) at 16 g/ha (corn (Zea mays); 16 g ai/ha, scale 0 to 100): 5%
Corn plant response rating (crop injury, 0 = no effect, 100 = complete kill) at 31 g/ha (corn (Zea mays); 31 g ai/ha, scale 0 to 100): 5%
plant injury at 62 g/ha (corn (Zea mays); [14]): 15%
plant injury at 125 g/ha (corn (Zea mays); [15]): 20%
Plant response rating, Waterhemp ([7]; 16 g ai/ha): 75
Plant response rating, Waterhemp ([7]; 31 g ai/ha): 85
Waterhemp plant response rating ([7]; 62 g ai/ha): 90
Waterhemp plant response rating ([7]; 125 g ai/ha): 85
plant injury at 16 g/ha ([8]; 16 g ai/ha, scale 0 to 100): 0%
plant injury at 31 g/ha ([8]; 31 g ai/ha, scale 0 to 100): 0%
plant injury at 62 g/ha ([8]; 62 g ai/ha, scale 0 to 100 (0 no effect, 100 complete control), read-out: Wheat plant response rating): 0%
plant injury at 125 g/ha [8, 15]: 0%
plant injury at 16 g/ha (soybean (Glycine max); 16 g ai/ha, scale 0 to 100): 30%
plant injury at 31 g/ha (soybean (Glycine max); 31 g ai/ha, scale 0 to 100): 40%
plant injury at 62 g/ha (soybean (Glycine max); [14]): 60%
plant injury at 125 g/ha (soybean (Glycine max); [15]): 60%
pest or weed control at 16 g/ha (kochia (Kochia scoparia); 16 g ai/ha, scale 0 to 100): 60%
pest or weed control at 31 g/ha (kochia (Kochia scoparia); 31 g ai/ha, scale 0 to 100): 50%
pest or weed control at 62 g/ha (kochia (Kochia scoparia); [14]): 90%
pest or weed control at 125 g/ha (kochia (Kochia scoparia); [15]): 90%
pest or weed control at 16 g/ha ([9]; 16 g ai/ha, scale 0 to 100): 10%
pest or weed control at 31 g/ha ([9]; 31 g ai/ha, scale 0 to 100): 10%
pest or weed control at 62 g/ha [9, 14]: 20%
pest or weed control at 125 g/ha [9, 15]: 15%
pest or weed control at 16 g/ha ([10]; 16 g ai/ha, scale 0 to 100): 0%
pest or weed control at 31 g/ha ([10]; 31 g ai/ha, scale 0 to 100): 0%
pest or weed control at 62 g/ha [10, 14]: 5%
pest or weed control at 125 g/ha [10, 15]: 5%
pest or weed control at 16 g/ha ([11]; 16 g ai/ha, scale 0 to 100): 10%
pest or weed control at 31 g/ha ([11]; 31 g ai/ha, scale 0 to 100): 25%
pest or weed control at 62 g/ha [11, 14]: 40%
pest or weed control at 125 g/ha [11, 15]: 70%
pest or weed control at 16 g/ha ([12]; 16 g ai/ha, scale 0 to 100): 65%
pest or weed control at 31 g/ha ([12]; 31 g ai/ha, scale 0 to 100): 60%
pest or weed control at 62 g/ha [12, 14]: 65%
pest or weed control at 125 g/ha [12, 15]: 85%
plant injury at 16 g/ha ([13]; 16 g ai/ha, scale 0 to 100): 30%
plant injury at 31 g/ha ([13]; 31 g ai/ha, scale 0 to 100): 40%
plant injury at 62 g/ha [13, 14]: 50%
plant injury at 125 g/ha [13, 15]: 30%

Reference: patent US11053204B2, “Pyrimidinyloxy benzene derivatives as herbicides” (FMC Corporation, priority 2015, dated 2021)
